The term inhibition denotes the drop in the measured response relative to a control, in per cent.

Test in all cases: biochemical
Holding throughout (design): SelectScreen Z'-LYTE purified kinase panel, per cent inhibition, mean of two points
Common to all, as to conditions: (μM)=Km app

In test [1] the target is ROCK2 (Homo sapiens, UniProt O75116).
The target of test [2] is BTK (Homo sapiens, UniProt Q06187).
Test [3] concerns the target FGFR2 (Homo sapiens, UniProt P21802).
Test [4] addresses PIM3 (Homo sapiens, UniProt Q86V86).
The target of test [5] is PIM2 (Homo sapiens, UniProt Q9P1W9).
Test [6] concerns the target GSK3B (GSK3 beta) (Homo sapiens, UniProt P49841).
Test [7] has as its target T1, JAK3 (Homo sapiens, UniProt P52333).
T1 sequence (P52333 1-1124): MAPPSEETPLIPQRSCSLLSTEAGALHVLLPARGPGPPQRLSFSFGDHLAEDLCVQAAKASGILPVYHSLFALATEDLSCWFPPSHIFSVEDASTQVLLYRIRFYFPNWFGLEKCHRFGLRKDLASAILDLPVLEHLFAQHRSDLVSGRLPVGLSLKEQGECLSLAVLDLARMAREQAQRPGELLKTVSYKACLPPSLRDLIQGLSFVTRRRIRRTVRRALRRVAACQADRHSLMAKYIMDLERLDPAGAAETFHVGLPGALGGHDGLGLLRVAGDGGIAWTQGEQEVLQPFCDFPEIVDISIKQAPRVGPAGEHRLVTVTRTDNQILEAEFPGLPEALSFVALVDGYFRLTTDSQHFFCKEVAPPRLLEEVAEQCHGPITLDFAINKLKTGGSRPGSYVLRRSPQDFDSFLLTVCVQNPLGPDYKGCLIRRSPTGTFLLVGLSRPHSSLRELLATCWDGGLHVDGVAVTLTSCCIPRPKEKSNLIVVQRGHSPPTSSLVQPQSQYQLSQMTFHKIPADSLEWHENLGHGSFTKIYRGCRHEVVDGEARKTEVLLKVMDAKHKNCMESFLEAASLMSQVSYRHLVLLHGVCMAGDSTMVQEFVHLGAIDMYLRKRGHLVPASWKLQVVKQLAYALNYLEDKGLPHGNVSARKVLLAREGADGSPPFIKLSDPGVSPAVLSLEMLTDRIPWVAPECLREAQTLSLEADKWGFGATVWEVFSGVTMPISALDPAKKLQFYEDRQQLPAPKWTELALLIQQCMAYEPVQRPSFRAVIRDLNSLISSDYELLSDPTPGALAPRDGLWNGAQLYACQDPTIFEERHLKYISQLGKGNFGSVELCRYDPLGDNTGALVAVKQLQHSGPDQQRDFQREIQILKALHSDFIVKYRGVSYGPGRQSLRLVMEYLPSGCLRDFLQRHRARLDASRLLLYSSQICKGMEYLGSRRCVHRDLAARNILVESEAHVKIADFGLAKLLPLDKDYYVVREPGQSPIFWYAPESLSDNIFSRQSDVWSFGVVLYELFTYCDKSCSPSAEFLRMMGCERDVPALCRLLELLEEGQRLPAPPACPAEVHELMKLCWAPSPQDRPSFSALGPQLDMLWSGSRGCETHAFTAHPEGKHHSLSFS

Test [8] deals with T2, ACVR1B (ALK4) (Homo sapiens, UniProt P36896).
T2 sequence (P36896 1-505): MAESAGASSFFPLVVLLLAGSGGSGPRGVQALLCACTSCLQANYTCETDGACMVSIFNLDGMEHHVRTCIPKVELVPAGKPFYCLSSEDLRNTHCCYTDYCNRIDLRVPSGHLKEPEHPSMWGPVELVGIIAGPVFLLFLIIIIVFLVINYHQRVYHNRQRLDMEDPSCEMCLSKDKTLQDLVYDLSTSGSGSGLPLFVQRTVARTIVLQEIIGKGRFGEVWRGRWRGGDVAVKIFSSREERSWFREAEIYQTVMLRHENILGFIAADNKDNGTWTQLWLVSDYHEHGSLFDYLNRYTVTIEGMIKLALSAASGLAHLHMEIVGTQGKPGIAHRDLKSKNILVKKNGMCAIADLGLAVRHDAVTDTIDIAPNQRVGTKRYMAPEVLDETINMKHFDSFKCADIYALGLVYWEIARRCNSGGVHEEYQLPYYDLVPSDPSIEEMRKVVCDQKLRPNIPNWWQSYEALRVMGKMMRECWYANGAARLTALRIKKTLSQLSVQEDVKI

Chain of ROCK2 (O75116 whole entry): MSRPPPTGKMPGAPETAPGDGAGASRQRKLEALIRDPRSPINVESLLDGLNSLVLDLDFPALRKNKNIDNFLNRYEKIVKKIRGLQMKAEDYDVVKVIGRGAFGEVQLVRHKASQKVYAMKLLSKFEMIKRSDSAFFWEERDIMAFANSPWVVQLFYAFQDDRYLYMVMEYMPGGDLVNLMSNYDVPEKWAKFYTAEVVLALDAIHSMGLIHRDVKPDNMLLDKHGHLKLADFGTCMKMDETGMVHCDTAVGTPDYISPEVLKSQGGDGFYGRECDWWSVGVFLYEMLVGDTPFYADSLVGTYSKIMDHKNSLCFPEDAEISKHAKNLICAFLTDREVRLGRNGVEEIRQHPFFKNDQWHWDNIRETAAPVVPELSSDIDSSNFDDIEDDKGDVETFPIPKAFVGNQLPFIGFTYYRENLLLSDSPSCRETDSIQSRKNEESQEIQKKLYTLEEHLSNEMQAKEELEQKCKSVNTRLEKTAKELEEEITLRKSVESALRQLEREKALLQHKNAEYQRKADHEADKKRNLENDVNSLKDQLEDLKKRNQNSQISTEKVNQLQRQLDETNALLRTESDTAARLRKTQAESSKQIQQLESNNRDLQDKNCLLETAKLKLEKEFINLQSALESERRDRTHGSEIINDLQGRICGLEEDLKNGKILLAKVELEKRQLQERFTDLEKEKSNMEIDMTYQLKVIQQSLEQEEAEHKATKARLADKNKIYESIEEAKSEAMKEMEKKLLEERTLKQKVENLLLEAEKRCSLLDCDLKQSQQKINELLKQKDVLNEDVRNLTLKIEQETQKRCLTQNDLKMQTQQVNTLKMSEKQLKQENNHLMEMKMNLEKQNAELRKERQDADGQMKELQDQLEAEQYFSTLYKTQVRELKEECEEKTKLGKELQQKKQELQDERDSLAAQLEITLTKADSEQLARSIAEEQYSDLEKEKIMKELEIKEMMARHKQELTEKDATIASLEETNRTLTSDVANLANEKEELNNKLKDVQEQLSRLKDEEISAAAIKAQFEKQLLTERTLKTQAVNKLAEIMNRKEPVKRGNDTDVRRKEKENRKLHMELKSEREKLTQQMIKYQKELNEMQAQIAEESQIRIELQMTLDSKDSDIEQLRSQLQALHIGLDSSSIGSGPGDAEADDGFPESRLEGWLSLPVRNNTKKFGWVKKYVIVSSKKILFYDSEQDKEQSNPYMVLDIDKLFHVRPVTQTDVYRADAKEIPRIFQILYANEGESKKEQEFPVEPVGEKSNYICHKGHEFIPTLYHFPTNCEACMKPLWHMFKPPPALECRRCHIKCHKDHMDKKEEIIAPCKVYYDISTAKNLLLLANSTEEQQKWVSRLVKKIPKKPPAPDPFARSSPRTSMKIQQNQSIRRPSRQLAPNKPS
Chain of BTK (Q06187 whole entry): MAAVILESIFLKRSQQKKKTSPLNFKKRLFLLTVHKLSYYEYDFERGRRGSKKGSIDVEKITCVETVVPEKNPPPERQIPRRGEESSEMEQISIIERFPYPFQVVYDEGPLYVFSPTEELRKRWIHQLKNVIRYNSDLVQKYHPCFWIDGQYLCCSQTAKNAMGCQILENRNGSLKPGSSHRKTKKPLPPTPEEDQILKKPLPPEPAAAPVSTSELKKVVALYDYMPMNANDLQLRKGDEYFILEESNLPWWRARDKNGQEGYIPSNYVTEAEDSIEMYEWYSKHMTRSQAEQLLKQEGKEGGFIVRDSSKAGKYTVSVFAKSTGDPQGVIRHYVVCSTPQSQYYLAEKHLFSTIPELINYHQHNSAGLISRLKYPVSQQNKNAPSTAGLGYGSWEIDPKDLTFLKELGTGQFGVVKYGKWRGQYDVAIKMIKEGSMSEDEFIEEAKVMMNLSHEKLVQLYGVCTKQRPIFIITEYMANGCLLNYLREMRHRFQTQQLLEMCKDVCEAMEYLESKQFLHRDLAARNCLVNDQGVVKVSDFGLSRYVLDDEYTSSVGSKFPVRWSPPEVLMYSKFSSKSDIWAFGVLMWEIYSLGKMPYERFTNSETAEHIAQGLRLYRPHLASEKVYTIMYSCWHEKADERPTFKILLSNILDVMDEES
Chain of PIM2 (Q9P1W9 whole entry): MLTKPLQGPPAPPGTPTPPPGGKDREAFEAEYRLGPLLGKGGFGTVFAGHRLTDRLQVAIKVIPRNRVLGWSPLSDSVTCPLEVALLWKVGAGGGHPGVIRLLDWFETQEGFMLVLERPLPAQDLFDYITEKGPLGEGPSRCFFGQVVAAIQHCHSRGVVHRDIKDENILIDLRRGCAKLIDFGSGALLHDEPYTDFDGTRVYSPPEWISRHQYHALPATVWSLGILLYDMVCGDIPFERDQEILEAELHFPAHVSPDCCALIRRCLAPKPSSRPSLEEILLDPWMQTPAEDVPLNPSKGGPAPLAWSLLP
Chain of FGFR2 (P21802 whole entry): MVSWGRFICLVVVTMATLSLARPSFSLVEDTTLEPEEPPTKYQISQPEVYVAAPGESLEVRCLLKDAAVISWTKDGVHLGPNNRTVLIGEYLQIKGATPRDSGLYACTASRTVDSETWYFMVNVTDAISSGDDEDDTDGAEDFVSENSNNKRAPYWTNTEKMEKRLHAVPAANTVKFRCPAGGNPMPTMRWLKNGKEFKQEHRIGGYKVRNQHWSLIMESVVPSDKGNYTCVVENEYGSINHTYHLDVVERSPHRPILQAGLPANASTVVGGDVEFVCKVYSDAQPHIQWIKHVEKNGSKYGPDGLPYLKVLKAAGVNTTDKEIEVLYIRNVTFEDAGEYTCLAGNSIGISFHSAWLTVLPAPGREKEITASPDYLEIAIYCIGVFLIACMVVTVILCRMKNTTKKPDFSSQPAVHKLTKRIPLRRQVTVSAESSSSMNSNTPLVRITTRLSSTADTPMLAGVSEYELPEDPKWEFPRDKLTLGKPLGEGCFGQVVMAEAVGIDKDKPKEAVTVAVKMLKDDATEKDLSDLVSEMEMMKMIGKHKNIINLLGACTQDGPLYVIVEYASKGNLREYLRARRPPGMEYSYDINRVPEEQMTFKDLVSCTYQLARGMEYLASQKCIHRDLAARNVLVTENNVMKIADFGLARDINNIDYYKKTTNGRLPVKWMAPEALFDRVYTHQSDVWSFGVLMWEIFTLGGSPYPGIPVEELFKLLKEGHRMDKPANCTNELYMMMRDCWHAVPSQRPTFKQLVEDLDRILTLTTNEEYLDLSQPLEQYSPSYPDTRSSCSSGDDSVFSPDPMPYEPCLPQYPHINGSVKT
Chain of GSK3B (GSK3 beta) (P49841 whole entry): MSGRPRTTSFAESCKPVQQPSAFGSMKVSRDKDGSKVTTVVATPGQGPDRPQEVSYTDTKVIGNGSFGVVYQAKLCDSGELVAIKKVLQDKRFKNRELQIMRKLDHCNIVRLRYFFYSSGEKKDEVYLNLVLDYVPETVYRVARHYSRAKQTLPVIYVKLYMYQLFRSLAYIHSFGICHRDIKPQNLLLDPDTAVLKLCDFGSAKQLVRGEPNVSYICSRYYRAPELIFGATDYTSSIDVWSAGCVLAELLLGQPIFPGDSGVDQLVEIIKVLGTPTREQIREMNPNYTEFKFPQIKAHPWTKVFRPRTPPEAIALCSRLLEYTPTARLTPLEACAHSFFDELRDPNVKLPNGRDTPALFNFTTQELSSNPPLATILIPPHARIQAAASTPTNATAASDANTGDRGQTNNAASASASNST

As to `O=C(CSc1nc2nccnc2c(=O)n1CCc1ccccc1)Nc1nccs1` [compound 1, PITCOIN1], the inhibition at 1 µM was 2.33% in test [1]; 6.72% in test [2]; 1.54% in test [3]; -19.5% in test [4]; -5.29% in test [5]; 2.87% in test [6]. The inhibition at 1 µM in test [7] was -0.818%; in test [8], 3.41%. Besides, the inhibition at 3 µM in test [1] is 1.58%; in test [2], 3.08%; in test [3], 2.27%; in test [4] it was 0.932%; in test [5], -3.77%; in test [6] it was 1.81%. Further, the figures for the inhibition at 3 µM in test [7] and in test [8] were -2.14% and 5.04%, respectively. Moreover, the inhibition at 10 µM is 5.34% in test [1]; 2.73% in test [2]; -1.86% in test [3]; 0.817% in test [4]; -7.86% in test [5]; 2.24% in test [6]. Moreover, the values for the inhibition at 10 µM in test [7] and in test [8] were 0.865% and 3.29%, respectively.

Turning to `CS(=O)(=O)Nc1cccc(-c2csc(NC(=O)CSc3nc4nccnc4c(=O)n3CCc3ccccc3)n2)c1` [compound 3, PITCOIN3], the inhibition at 1 µM in test [1] is 7.17%; in test [2], 3.1%; in test [3], 6.04%; in test [4], -2.65%; in test [5], -0.888%; in test [6], -0.953%. Moreover, the inhibition at 1 µM in test [7] came out at 1.86%; in test [8], 5.04%. Moreover, the inhibition at 3 µM is -3.73% in test [1]; 6.59% in test [2]; 6.91% in test [3]; -27.1% in test [4]; -5.98% in test [5]; -1.98% in test [6]. In addition, the inhibition at 3 µM in test [7] was -1.56%; in test [8], 9.13%. The inhibition at 10 µM is 2.1% in test [1]; 3.91% in test [2]; 3.2% in test [3]; -12.5% in test [4]; -4.75% in test [5]; -4.59% in test [6]. Besides, the values for the inhibition at 10 µM in test [7] and in test [8] were -1.58% and 4.09%, respectively.

The record behind these values is PMC7613998, “Development of selective inhibitors of phosphatidylinositol 3-kinase C2α” (Nature Chemical Biology, 2022).
